Experimental data as given in ChEMBL document CHEMBL1208684 (Eur J Med Chem, 2010).
Activity calls are given as the source filed them. The rule behind the calls is not given here.

Assays:
K562 = experiment: Antiproliferative activity against human K562 cells after 48 hrs; format: functional, cell-based; conditions: K562, 48 h
Tubulin = Tubulin (Sus scrofa, UniProt P02554+P02550); experiment: Inhibition of pig brain tubulin polymerization after 30 mins by turbidimetry
[1] = Antiproliferative activity against human KB/HeLa cells after 48 hrs by XTT assay; format: functional, cell-based
RKO [2] = experiment: Antiproliferative activity against human RKO cells expressing p27Kip1 after 48 hrs by XTT assay; format: functional, cell-based
[3] = Cell cycle arrest in human KB/HeLa cells assessed as accumulation at G2/M phase after 24 hrs using propidium iodide staining by FACS analysis; format: functional, cell-based
[4] = Antiproliferative activity against rat LT12 cells after 48 hrs by XTT assay; format: functional, cell-based; conditions: LT12, 48 h
[5] = Antiproliferative activity against multi drug-resistant rat LT12 cells after 48 hrs by XTT assay; format: functional, cell-based; conditions: LT12, 48 h
L1210 [6] = experiment: Antiproliferative activity against vincristine-resistant mouse L1210 cells after 48 hrs by XTT assay; format: functional, cell-based; conditions: L1210, 48 h
P388 [7] = experiment: Antiproliferative activity against adriamycin-resistant mouse P388 cells after 48 hrs by XTT assay; format: functional, cell-based; conditions: P388, 48 h
SK-OV-3 = experiment: Antiproliferative activity against human SKOV3 cells after 48 hrs by XTT assay; format: functional, cell-based; conditions: SK-OV-3, 48 h
SF-268 = experiment: Antiproliferative activity against human SF268 cells after 48 hrs by XTT assay; format: functional, cell-based; conditions: SF-268, 48 h
NCI-H460 = experiment: Antiproliferative activity against human NCI-H460 cells after 48 hrs by XTT assay; format: functional, cell-based; conditions: NCI-H460, 48 h
RKO [8] = experiment: Antiproliferative activity against human RKO cells after 48 hrs by XTT assay; format: functional, cell-based
L1210 [9] = experiment: Antiproliferative activity against mouse L1210 cells after 48 hrs by XTT assay; format: functional, cell-based; conditions: L1210, 48 h
P388 [10] = experiment: Antiproliferative activity against mouse P388 cells after 48 hrs by XTT assay; format: functional, cell-based; conditions: P388, 48 h
Tubulin (Sus scrofa) = Tubulin (Sus scrofa) (UniProt P02554+P02550); experiment: Ratio of compound IC50 to colchicine IC50 for inhibition of pig brain tubulin polymerization
Sequence of Tubulin (Sus scrofa) (P02550 whole entry, looked up): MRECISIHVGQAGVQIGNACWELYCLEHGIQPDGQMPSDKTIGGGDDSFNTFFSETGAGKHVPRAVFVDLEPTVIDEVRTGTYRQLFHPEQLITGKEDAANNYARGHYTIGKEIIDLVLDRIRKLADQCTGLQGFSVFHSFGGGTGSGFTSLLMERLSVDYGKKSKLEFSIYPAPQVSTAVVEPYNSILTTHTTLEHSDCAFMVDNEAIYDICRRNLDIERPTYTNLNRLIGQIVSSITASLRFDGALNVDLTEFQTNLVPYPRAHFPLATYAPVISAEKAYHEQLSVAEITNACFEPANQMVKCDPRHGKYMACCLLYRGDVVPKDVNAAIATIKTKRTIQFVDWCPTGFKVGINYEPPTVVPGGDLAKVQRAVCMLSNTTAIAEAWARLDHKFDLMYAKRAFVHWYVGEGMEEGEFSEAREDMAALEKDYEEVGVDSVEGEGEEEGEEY
Sequence of Tubulin (Sus scrofa) (P02554 whole entry, looked up): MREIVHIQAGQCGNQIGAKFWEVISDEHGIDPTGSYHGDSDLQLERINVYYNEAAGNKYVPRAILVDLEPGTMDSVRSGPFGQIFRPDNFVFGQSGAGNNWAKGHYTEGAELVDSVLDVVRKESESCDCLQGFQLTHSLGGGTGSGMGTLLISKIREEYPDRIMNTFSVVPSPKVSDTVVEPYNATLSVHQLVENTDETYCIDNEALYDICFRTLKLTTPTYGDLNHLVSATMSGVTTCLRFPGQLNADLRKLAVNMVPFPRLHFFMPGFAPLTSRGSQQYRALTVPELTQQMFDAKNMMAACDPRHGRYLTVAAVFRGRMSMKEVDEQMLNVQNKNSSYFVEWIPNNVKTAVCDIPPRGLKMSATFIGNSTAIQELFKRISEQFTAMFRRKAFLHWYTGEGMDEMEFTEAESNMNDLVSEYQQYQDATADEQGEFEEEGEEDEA

[11] = Displacement of [3H]colchicine from biotin-labeled tubulin after 2 hrs by scintillation proximity assay
[12] = Displacement of [3H]paclitaxel from biotin-labeled tubulin after 2 hrs by scintillation proximity assay
PtK2 = experiment: Disruption of microtubule network in rat kangaroo PtK2 cells at 5 uM after 1 hr by immunofluorescence microscopic analysis; format: functional, cell-based; conditions: Potorous tridactylus

SMILES | IC50 (K562) | IC50 (Tubulin) | other results
COc1cccc(C=C2c3cccc(Cl)c3C(=O)c3c(Cl)cccc32)c1O | 5000 nM | > 2000 nM | –
O=C1c2cccc(Cl)c2C(Cc2ccc([N+](=O)[O-])cc2)c2cccc(Cl)c21 (configuration not stated) | > 15000 nM | – | –
COc1ccc(CC2c3cccc(Cl)c3C(=O)c3c(Cl)cccc32)cc1O | 1600 nM | 1200 nM | –
COc1cc2c(c(OC)c1OC)-c1ccc(OC)c(=O)cc1[C@@H](NC(C)=O)CC2 [COLCHICINE] | – | – | IC50 [1]: 30 nM; IC50 (RKO [2]): > 10000 nM; EC50 [3]: 14 nM
CC[C@]1(O)C[C@@H]2CN(CCc3c([nH]c4ccccc34)[C@@](C(=O)OC)(c3cc4c(cc3OC)N(C)[C@H]3[C@@](O)(C(N)=O)[C@H](O)[C@]5(CC)C=CCN6CC[C@]43[C@@H]65)C2)C1 [VINDESINE] | – | – | IC50 [4]: 1 nM; IC50 [5]: 260 nM; IC50 (L1210 [6]): > 5000 nM
COc1ccc(/C=C2/c3cccc(Cl)c3C(=O)c3cccc(Cl)c32)cc1 | 1300 nM | 520 nM | –
COc1ccc(C=C2c3cccc(Cl)c3C(=O)c3c(Cl)cccc32)cc1 | 610 nM | 870 nM | –
O=C1c2c(O)cccc2C(=Cc2ccc(O)c(O)c2)c2cccc(O)c21 | 2600 nM | – | –
COc1cc(C=C2c3cccc(Cl)c3C(=O)c3c(Cl)cccc32)cc(OC)c1O | 2000 nM | 1660 nM | –
O=C1c2c(O)cccc2C(=Cc2ccc(O)cc2)c2cccc(O)c21 | 2000 nM | – | –
O=C1c2c(O)cccc2C(=Cc2ccc(C(F)(F)F)cc2)c2cccc(O)c21 | 1700 nM | – | –
COc1cc(C=C2c3cccc(O)c3C(=O)c3c(O)cccc32)cc(OC)c1OC | 2600 nM | > 10000 nM | –
O=C1c2cccc(Cl)c2/C(=C\c2ccccc2)c2cccc(Cl)c21 | > 30000 nM | – | –
COc1cc(/C=C2\c3cccc(Cl)c3C(=O)c3cccc(Cl)c32)cc(OC)c1OC | 18000 nM | – | –
O=C(/C=C1\c2cccc(Cl)c2C(=O)c2cccc(Cl)c21)c1ccc([N+](=O)[O-])cc1 | 1900 nM | – | –
COc1ccc(C(=O)C=C2c3cccc(Cl)c3C(=O)c3c(Cl)cccc32)cc1 | 930 nM | 730 nM | –
O=C1c2c(O)cccc2C(=Cc2ccccc2)c2cccc(O)c21 | 2300 nM | > 10000 nM | –
O=C(/C=C1\c2cccc(Cl)c2C(=O)c2cccc(Cl)c21)c1ccc(Br)cc1 | 1700 nM | 510 nM | –
COc1cc(/C=C2/c3cccc(Cl)c3C(=O)c3cccc(Cl)c32)ccc1O | 270 nM | 380 nM | –
COc1ccc(C(=O)/C=C2\c3cccc(Cl)c3C(=O)c3cccc(Cl)c32)cc1OC | 240 nM | 690 nM | –
COc1ccc(/C=C2/c3cccc(Cl)c3C(=O)c3cccc(Cl)c32)c(OC)c1OC | 17300 nM | – | –
O=C(/C=C1\c2cccc(Cl)c2C(=O)c2cccc(Cl)c21)c1ccccc1 | 290 nM | 1700 nM | –
COc1cccc(CC2c3cccc(Cl)c3C(=O)c3cccc(Cl)c32)c1 (configuration not stated) | > 15000 nM | – | –
CC(=O)O[C@H]1C(=O)[C@@]2(C)[C@H]([C@H](OC(=O)c3ccccc3)[C@]3(O)C[C@H](OC(=O)[C@H](O)[C@@H](NC(=O)c4ccccc4)c4ccccc4)C(C)=C1C3(C)C)[C@]1(OC(C)=O)CO[C@@H]1C[C@@H]2O [PACLITAXEL] | – | – | IC50 [1]: 10 nM; IC50 (RKO [2]): > 3000 nM; IC50 [5]: 400 nM; IC50 (L1210 [6]): > 5000 nM; IC50 (P388 [7]): > 5000 nM; EC50 [3]: 49 nM
COc1ccc(/C=C2\c3cccc(Cl)c3C(=O)c3cccc(Cl)c32)cc1O | 210 nM | 420 nM | –
COc1ccc(C=C2c3cccc(Cl)c3C(=O)c3c(Cl)cccc32)cc1O | 250 nM | 360 nM | IC50 [1]: 140 nM; IC50 (SK-OV-3): 140 nM; IC50 (SF-268): 170 nM; IC50 (NCI-H460): 210 nM; IC50 (RKO [8]): 160 nM; IC50 [4]: 630 nM; IC50 (RKO [2]): > 9000 nM; IC50 [5]: 290 nM; IC50 (L1210 [9]): 510 nM; IC50 (L1210 [6]): 300 nM; IC50 (P388 [10]): 390 nM; IC50 (P388 [7]): 640 nM; EC50 [3]: 118 nM; Ratio IC50 (Tubulin (Sus scrofa)): 4; IC50 [11]: 1380 nM; Activity [12]: inactive

SMILES | IC50 (K562) | IC50 (Tubulin) | other results
COc1ccc(CC2c3cccc(Cl)c3C(=O)c3c(Cl)cccc32)cc1 | > 80000 nM | > 2000 nM | –
COc1cc(C=C2c3cccc(Cl)c3C(=O)c3c(Cl)cccc32)ccc1O | 5000 nM | 6800 nM | –
CC(=O)Oc1ccc(C(=O)/C=C2\c3cccc(Cl)c3C(=O)c3cccc(Cl)c32)cc1 | 3400 nM | 410 nM | –
COc1ccc(C(=O)/C=C2\c3cccc(Cl)c3C(=O)c3cccc(Cl)c32)cc1 | 220 nM | 530 nM | –
COc1ccc(/C=C2\c3cccc(Cl)c3C(=O)c3cccc(Cl)c32)cc1 | 1400 nM | 690 nM | –
COc1ccc(C=C2c3cccc(Cl)c3C(=O)c3c(Cl)cccc32)c(O)c1 | 500 nM | 1600 nM | –
COc1ccc(C=C2c3cccc(O)c3C(=O)c3c(O)cccc32)cc1OC | 2000 nM | > 10000 nM | –
COc1cc(C(=O)/C=C2\c3cccc(Cl)c3C(=O)c3cccc(Cl)c32)cc(OC)c1OC | 230 nM | 360 nM | Activity (PtK2): Active
COc1ccc(C=C2c3cccc(OC)c3C(=O)c3c(OC)cccc32)cc1 | 1420 nM | > 2000 nM | –
O=C1c2c(O)cccc2C(=Cc2ccc([N+](=O)[O-])cc2)c2cccc(O)c21 | 1700 nM | > 10000 nM | –
COc1ccc(C=C2c3cccc(O)c3C(=O)c3c(O)cccc32)cc1 | 2000 nM | 4000 nM | –
COc1cc(CC2c3cccc(Cl)c3C(=O)c3cccc(Cl)c32)cc(OC)c1OC (configuration not stated) | > 15000 nM | – | –
CC[C@]1(O)C[C@H]2CN(CCc3c([nH]c4ccccc34)[C@@](C(=O)OC)(c3cc4c(cc3OC)N(C=O)[C@H]3[C@@](O)(C(=O)OC)[C@H](OC(C)=O)[C@]5(CC)C=CCN6CC[C@]43[C@@H]65)C2)C1 [VINCRISTINE] | – | – | EC50 [3]: 2.4 nM
COc1cc(C=C2c3cccc(Cl)c3C(=O)c3c(Cl)cccc32)cc(OC)c1OC | 10000 nM | > 10000 nM | –
O=C1c2cccc(Cl)c2C(Cc2ccc(Cl)cc2)c2cccc(Cl)c21 (configuration not stated) | > 15000 nM | – | –
COc1ccc(C=C2c3cccc(O)c3C(=O)c3c(O)cccc32)cc1O | 1500 nM | 1930 nM | –
COc1ccc(CC2c3cccc(Cl)c3C(=O)c3cccc(Cl)c32)cc1O (configuration not stated) | 5100 nM | – | –
COc1cc(C(=O)C=C2c3cccc(Cl)c3C(=O)c3c(Cl)cccc32)cc(OC)c1OC | 720 nM | 1620 nM | –
O=C1c2cccc(Cl)c2/C(=C/c2ccccc2)c2cccc(Cl)c21 | > 30000 nM | – | –
COc1ccc(CC2c3cccc(Cl)c3C(=O)c3cccc(Cl)c32)cc1 (configuration not stated) | 13000 nM | – | –
COc1ccc(C=C2c3cccc(Cl)c3C(=O)c3c(Cl)cccc32)c(OC)c1O | 100 nM | 360 nM | IC50 [1]: 130 nM; IC50 (SK-OV-3): 160 nM; IC50 (SF-268): 140 nM; IC50 (NCI-H460): 170 nM; IC50 (RKO [8]): 160 nM; IC50 [4]: 370 nM; IC50 (RKO [2]): > 9000 nM; IC50 [5]: 170 nM; IC50 (L1210 [9]): 350 nM; IC50 (L1210 [6]): 230 nM; IC50 (P388 [10]): 320 nM; IC50 (P388 [7]): 460 nM; EC50 [3]: 111 nM; Ratio IC50 (Tubulin (Sus scrofa)): 4; IC50 [11]: 1170 nM; Activity [12]: inactive
O=C(/C=C1\c2cccc(Cl)c2C(=O)c2cccc(Cl)c21)c1ccc(Cl)cc1 | 1600 nM | – | –
COc1cccc(C(=O)/C=C2\c3cccc(Cl)c3C(=O)c3cccc(Cl)c32)c1 | 250 nM | 690 nM | –
O=C1c2cccc(Cl)c2C(Cc2ccccc2)c2cccc(Cl)c21 (configuration not stated) | > 15000 nM | – | –
COC(=O)Nc1nc2cc(C(=O)c3cccs3)ccc2[nH]1 [NOCODAZOLE] | – | – | IC50 [1]: 140 nM; IC50 [4]: 40 nM; IC50 (RKO [2]): > 10000 nM; IC50 [5]: 70 nM; EC50 [3]: 91 nM
